In patent publication US9763918B2, “Compositions and methods for treating chronic urticaria” (Knopp Biosciences LLC, priority 2013, dated 2017):

Experiments:
[1] = tested on: Siglec-F lo IL5Rα hi positive cells (developing B cells, basophils and other cell populations); conditions: mice, 30 mg/kg or 100 mg/kg daily gavage, 70 days, either dose
Description: (§1) The study consisted of 3 groups of BALB/cByJ mice (10 mice per group). Mice received daily gavage treatments of either 30 mg/kg, 100 mg/kg of dexpramipexole or vehicle control for 70 days. Bone marrow was processed into single cell suspensions and cells were stained with fluorescent conjugate antibodies to analyze the developmental stages of cells by flow cytometry. […] The columns depict the mean for each group and the error bar indicates the standard error of the mean. The asterisks denote statistical significance between treatment groups and the vehicle control group by one-way ANOVA (* p≦0.05, ** p≦0.01).

[2] = tested on: Sca1+ c-Kit+ lineage negative cells (multipotent hematopoietic stem cells); conditions: mice, 30 mg/kg or 100 mg/kg daily gavage, 70 days, either dose
Description: as §1

eosinophils [3] = type: in vivo; conditions: minipigs, 7.5, 25, 75/50 mg/kg daily oral gavage, 39 weeks
Description: In a 39-week repeat-dose toxicology study, minipigs were dosed at 0, 7.5, 25, and 75 mg/kg dexpramipexole by daily oral gavage through Study Day 45 and at 0, 7.5, 25, and 50 mg/kg dexpramipexole from Study Day 46 to study completion.

eosinophils [4] = tested on: eosinophils
Description: (§2) In FIG. 2A the time period marked “W” represents the end of the 4-week washout following the month 3 time point.
The phase 3 clinical trial was a double-blind study of dexpramipexole in ALS patients randomized 1:1 to placebo or dexpramipexole 300 mg daily treatment. Hematology parameters were collected as part of routine safety monitoring. Eosinophil and basophil counts were retrospectively analyzed by visit.
Eosinophil levels were summarized over available time points and analyzed by ANOVA testing the effect of treatment vs. placebo on mean changes in serum eosinophil counts from baseline. Subjects with baseline eosinophils from 0 to 0.02×10^9/L (constituting less than 2% of all subjects analyzed) were censored from the primary analysis because of the inherent limitation to observe a decline from baseline.
Statistical analysis of the change from baseline was performed at month 6 to remove the effect of study dropouts in later months.

eosinophils [5] = tested on: eosinophils; remark: listed apart in the source
Description: as §2
The Phase 2 trial was a two-part, double-blind study that evaluated the safety, tolerability, and clinical effects of dexpramipexole in ALS patients.
In Part 1, subjects were randomized to placebo (n=27), 50 mg/day (n=23), 150 mg/day (n=26), or 300 mg/day dexpramipexole (n=26) for 12 weeks.

[6] = tested on: myeloid and lymphoid cell types, red blood cells, platelets; conditions: Phase 3, 300 mg daily, month 6
Description: Hematological parameters were measured in a Phase 3 study of dexpramipexole in ALS. Because of the high rate of mortality among ALS patients, including subjects in the Phase 3 trial, hematology parameters obtained at the month 6 visit were chosen for analysis to remove the effect of study dropouts in later months.

With CCCN[C@@H]1CCc2nc(N)sc2C1 [dexpramipexole, (6R)-2-amino-4,5,6,7-tetrahydro-6-(propylamino) benzothiazole] the “Siglec-F lo IL5Rα hi positive cells in bone marrow vs vehicle control” value [1] was “lowered”, the “number of Sca1+ c-Kit+ lineage negative cells in bone marrow vs vehicle control” value [2] was “lowered” and the effect on eosinophils (eosinophils [3]) was “dose- and time-dependent reduction in eosinophils”. The “peripheral blood eosinophil count” value (eosinophils [4]; Phase 3, after 8-12 weeks of treatment, persisted for the duration of the trial) was “profound decrease”, the “eosinophil counts in subject with elevated eosinophil counts at baseline” value (eosinophils [4]; Phase 3 subject with highest baseline eosinophil count, through month 12) was “decrease in eosinophil counts” and the “effect on eosinophil counts” value (eosinophils [5]; Phase 2 trial in ALS subjects) was “dose- and time-dependent decrease in eosinophil counts”. The “eosinophil counts in subject with hypereosinophilia at baseline” value (eosinophils [5]; one Phase 2 subject, Part 2 baseline, through month 12) was “decrease in eosinophil counts” and the “change of all myeloid and lymphoid cell types measured” value [6] was “statistically significant mean reductions from baseline”.
